Reference: patent publication US6576620B2, “Method of identifying partial adenosine A1 receptor agonists” (CV Therapeutics, Inc., priority 1999, dated 2003)
Read-outs that look alike come from different tables or passages of the source.

Experiments:
[1] = test system: guinea pig isolated heart; assay: A-V nodal conduction time / S-H interval, isolated perfused heart; settings: for EC50: Cavia porcellus; for S-H interval Efficacy: Table 5, 2759 = CVT-2759
Procedure: This method evaluates the potencies of compounds to cause coronary vasodilation (A2A AdoR response) and to prolong A-V nodal conduction time (A1 AdoR response).
Rats and guinea pigs, of either sex weighing from 230 to 260 grams and 300 to 350 grams, respectively, were used in this study. Animals were anesthetized by peritoneal injection of a cocktail containing ketamine and xylazine (ketamine 100 mg, xylazine 20 mg/ml). The chest was opened and the heart quickly removed. The heart was briefly rinse in ice-cold Krebs-Henseleit solution (see below), and the aorta cannulated. The heart was then perfused at a flow rate of 10 ml/min with modified Krebs-Henseleit (K-H) solution containing NaCl 117.9, KCl 4.5, CaCl2 2.5, MgSO4 1.18, KH2PO4 1.18, pyruvate 2.0 mmol. The K-H solution (pH 7.4) was gassed continuously with 95% O2 and 5% CO2 and warmed to 35±0.50° C. The heart was electrically paced at a fixed cycle length of […] (250 beats/min) using a bipolar electrode place on the left atrium. The electrical stimuli were generated by a Grass stimulator (Model S48, W. Warwick, R.I.) and delivered through a Stimuli Isolation Unit (Model SIU5, Astro-Med, Inc., NY) as square-wave pulses of 3-msec in duration and amplitude of at least twice the threshold intensity.
A1 adenosine receptor-mediated depression of A-V nodal conduction time (negative dromotropic effect) was measured. Atrial and ventricular surface electrograms in rats and His bundle electrogram in guinea pigs, were recorded during constant atrial pacing.
The effects of compounds on coronary conductance (A2A effect) and atrioventricular conduction time or stimulus-to-His-bundle (S-H) interval (A1 effect) was then determined. Hearts were instrumented for continuous recording of coronary perfusion pressure (A2A response) and atrioventricular (A-V) conduction time or S-H interval (A1 response). In each experiment, concentration-response relationship of compounds to increase coronary conductance and to prolong A-V conduction time or S-H interval was determined. After control measurements of CPP and A-V conduction time or S-H interval were made, progressive higher concentrations of the compound studied was administered until maximal coronary vasodilation and A-V nodal conduction time or S-H interval prolongation were achieved.
Guinea pigs (Hartley) of either sex weighing 300-350 g were anaesthetized with methoxyflurane and killed by decapitation. The chest was cut open and the heart was removed quickly and rinsed in ice-cold modified Krebs-Henseleit (K-H) solution. The contents of the modified K-H solution were (in mM): NaCl 117.9, KCl 4.8, CaCl2 2.5, MgSO2 1.18, KH2PO4 1.2, Na2 EDTA 0.5, ascorbic acid 0.14, dextrose 5.5, pyruvic acid (sodium salt) 2.0, and NaHCO3 25. The K-H solution was continuously gassed with 95% oxygen and 5% CO2, and the pH was adjusted to a value of 7.4. To perfuse the heart by the Langendorff method, the transected aorta was slid onto a glass cannula and secured by a ligature. Retrograde perfusion of the aorta was initiated immediately at a constant flow of 10 ml min-′ with modified K-H solution warmed to 36.0±0.5° C. A side port in the cannula was used to connect the perfusion line to a Gould pressure transducer for measurement of coronary perfusion pressure. Coronary perfusion pressure was continuously recorded on a strip chart (Gould RS3400, Cleveland, Ohio) throughout each experiment. Coronary conductance (in ml min^−1 mmHg^−1) was calculated as the ratio of coronary flow (10 ml min^−1) to perfusion pressure (mm Hg). To facilitate the exit of fluid from the left ventricle, the leaflets of the mitral valve were trimmed with fine spring-handled scissors. When appropriate, hearts were paced at a constant rate using external electrodes. […]

[2] = test system: guinea pig isolated heart; assay: Monophasic action potential duration, isolated heart; settings: bolus (100 μl) of 1 mM adenosine
Procedure: Signals were considered adequate if they were stable for at least 5-10 min and the amplitudes exceeded 10 mV. The data were digitized at 2 kHz by a DT-2801A digitizing board (Data Translation, Marlboro, Mass.) and were saved for analysis using the Snapshot data acquisition program (Snapshot Storage Scope, HEM Data Corp., Southfield, Mich.). The duration of the atrial and ventricular monophasic action potentials was measured from onset of depolarization to either 50 or 90% of repolarization.

[3] = test system: guinea pig isolated heart; settings: previous study (12); cited from earlier work
Adenosine A1 receptor [4] = assay: A1-agonist stimulated [35S]GTPγS binding to G proteins; assay type: biochemical; settings: for GTPγS (% of CPA): Table 5; for GTPγS: Table 1, compounds of Example 2, normalized to the full agonist CPA
Procedure: At the end of the incubation, each suspension was filtered and the retained radioactivity determined as described above.

Adenosine A1 receptor [5] = biological target: T1, Adenosine A1 receptor (Cavia porcellus, UniProt P47745); assay: Affinity binding (Ki) of Tables 4 and 5
T1 construct: from tissue; host or cells: guinea pig forebrain membranes
T1 sequence (P47745 1-326): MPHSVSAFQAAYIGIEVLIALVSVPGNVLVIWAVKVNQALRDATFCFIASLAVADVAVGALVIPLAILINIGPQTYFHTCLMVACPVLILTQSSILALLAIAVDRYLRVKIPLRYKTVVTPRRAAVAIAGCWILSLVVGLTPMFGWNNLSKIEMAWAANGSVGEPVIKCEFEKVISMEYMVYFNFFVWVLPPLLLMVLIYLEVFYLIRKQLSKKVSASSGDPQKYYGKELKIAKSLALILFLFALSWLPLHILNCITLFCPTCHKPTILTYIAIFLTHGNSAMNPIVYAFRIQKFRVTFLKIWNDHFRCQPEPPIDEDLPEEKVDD
Procedure: The binding affinity of a compound is evaluated in a competitive binding assay.

Row | Structure (SMILES) | GTPγS (% of CPA) (Adenosine A1 receptor [4]) | Ki (Adenosine A1 receptor [5]; Table 5, read-out: Ki) [nM] | GTPγS (Adenosine A1 receptor [4]) [%] | Ki (Adenosine A1 receptor [5]; Table 4, read-out: Ki low) [nM] | adenosine concentration causing second-degree AV block ([1]; absence of Compound 6 of Example 2) [µM] | duration of atrial monophasic action potential at 90% of repolarization [2] [ms] | maximal increase of coronary conductance [3] [ml min^−1 mmHg^−1] | EC50 ([1]; Table 5, S-H interval, read-out: EC50) [nM] | S-H interval Efficacy [1] | EC50 ([1]; Table 4, A-V nodal conduction time, read-out: EC50 A-V NCT) [nM]
1 | Nc1ncnc2c1ncn2[C@@H]1O[C@H](CO)[C@@H](O)[C@H]1O [Adenosine] |  |  |  |  | 6 | 22 ± 5 | 0.15±0.02 |  |  | 
2 | O=C(NC1CCCC1)OC[C@H]1O[C@@H](n2cnc3c(N[C@@H]4CCOC4)nc(Cl)nc32)[C@H](O)[C@@H]1O [Compound 69 of Example 2, [(5-{6-[((3R)oxolan-3-yl)amino]-2-chloropurin-9-yl}(3S,2R,4R,5R)-3,4-dihydroxyoxolan-2-yl)methoxy]-N-cyclopentylcarboxamide] | 69 % of CPA | > 1460 | 50 |  |  |  |  |  | Partial (= 2759) | 

More lines, in order of falling Ki (Adenosine A1 receptor [5]; Table 5, read-out: Ki), values ahead:

Row | GTPγS (% of CPA) (Adenosine A1 receptor [4]) | Ki (Adenosine A1 receptor [5]; Table 5, read-out: Ki) [nM] | GTPγS (Adenosine A1 receptor [4]) [%] | Ki (Adenosine A1 receptor [5]; Table 4, read-out: Ki low) [nM] | Structure (SMILES) | adenosine concentration causing second-degree AV block ([1]; absence of Compound 6 of Example 2) [µM] | duration of atrial monophasic action potential at 90% of repolarization [2] [ms] | maximal increase of coronary conductance [3] [ml min^−1 mmHg^−1] | EC50 ([1]; Table 5, S-H interval, read-out: EC50) [nM] | S-H interval Efficacy [1] | EC50 ([1]; Table 4, A-V nodal conduction time, read-out: EC50 A-V NCT) [nM]
3 | 84.2 % of CPA | 1560 |  |  | O[C@@H]1[C@H](O)[C@@H](CSc2cccc(F)c2)O[C@H]1n1cnc2c(N[C@@H]3CCOC3)ncnc21 [Compound 20 of Example 4, 2-{6-[((3R)oxolan-3-yl)amino]purin-9-yl}(4S,5S,2R,3R)-5-[(3-fluorophenylthio)methyl]oxolane-3,4-diol] |  |  |  |  | Partial (= 2759) | 
4 | 89 % of CPA | 895 | 89 | 900 | CCCNC(=S)OC[C@H]1O[C@@H](n2cnc3c(N[C@@H]4CCOC4)ncnc32)[C@H](O)[C@@H]1O [Compound 49 of Example 2, 2-{6-[((3R)oxolan-3-yl)amino]purin-9-yl}(4S,2R,3R,5R)-5-{[(propylamino)thioxomethoxy]methyl}oxolane-3,4-diol] |  |  |  |  | Partial | 1400
5 | 77 % of CPA | 443 |  |  | CCCNC(=S)OC[C@H]1O[C@@H](n2cnc3c(N[C@@H]4CCOC4)nc(Cl)nc32)[C@H](O)[C@@H]1O [Compound 83 of Example 2, 2-{6-[((3R)oxolan-3-yl)amino]-2-chloropurin-9-yl}(4S,2R,3R,5R)-5-{[(propylamino)thioxomethoxy]methyl}oxolane-3,4-diol] |  |  |  | 610 | Partial | 
